Data as given in ChEMBL document CHEMBL1221208, “ATP-competitive inhibitors of the mitotic kinesin KSP that function via an allosteric mechanism” (Nat Chem Biol, 2007).
Numbering of substitutions follows the chain as printed. Calls of active or inactive are those of the source.

Key:
[1] = tested on: T1, Kinesin-like protein KIF11 (Homo sapiens), P52732 [A133D]; assay: Uncompetitive inhibition of human KSP A133D mutant with respect to microtubule using varying ATP levels in presence of saturating levels of microtubule by Lineweaver-Burke plot
T1 sequence (whole entry): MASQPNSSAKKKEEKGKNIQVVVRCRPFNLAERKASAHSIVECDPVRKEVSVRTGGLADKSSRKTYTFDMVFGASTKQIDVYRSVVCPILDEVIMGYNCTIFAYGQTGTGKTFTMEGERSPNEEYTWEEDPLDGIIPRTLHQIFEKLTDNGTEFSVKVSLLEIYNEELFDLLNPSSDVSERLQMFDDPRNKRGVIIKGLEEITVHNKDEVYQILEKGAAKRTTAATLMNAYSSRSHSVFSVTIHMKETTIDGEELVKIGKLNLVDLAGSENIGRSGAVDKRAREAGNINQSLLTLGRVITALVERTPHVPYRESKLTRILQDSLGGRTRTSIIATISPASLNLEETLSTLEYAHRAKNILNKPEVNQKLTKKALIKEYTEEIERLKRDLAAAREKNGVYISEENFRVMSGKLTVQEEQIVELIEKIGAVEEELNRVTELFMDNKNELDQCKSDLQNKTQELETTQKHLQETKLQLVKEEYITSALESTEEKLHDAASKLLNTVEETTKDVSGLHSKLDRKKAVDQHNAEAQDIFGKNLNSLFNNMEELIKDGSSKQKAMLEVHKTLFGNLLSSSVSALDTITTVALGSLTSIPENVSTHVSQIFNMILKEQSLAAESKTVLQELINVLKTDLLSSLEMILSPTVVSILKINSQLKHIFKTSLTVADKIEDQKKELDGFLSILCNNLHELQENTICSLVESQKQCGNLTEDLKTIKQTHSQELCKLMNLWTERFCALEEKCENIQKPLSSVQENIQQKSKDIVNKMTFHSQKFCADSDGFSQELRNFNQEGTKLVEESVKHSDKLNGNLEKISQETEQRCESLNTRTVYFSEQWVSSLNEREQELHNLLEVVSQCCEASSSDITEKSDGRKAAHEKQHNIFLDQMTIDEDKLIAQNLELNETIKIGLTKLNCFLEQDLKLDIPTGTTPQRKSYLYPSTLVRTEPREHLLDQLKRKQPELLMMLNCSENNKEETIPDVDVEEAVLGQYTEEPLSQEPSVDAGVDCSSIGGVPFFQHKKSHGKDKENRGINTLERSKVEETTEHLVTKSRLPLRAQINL

[2] = species: Homo sapiens; assay: Uncompetitive inhibition of human KSP KHC-L5 mutant with respect to microtubule using varying ATP levels in presence of saturating levels of microtubule by Lineweaver-Burke plot
[3] = target: T2, Kinesin-like protein KIF11 (Homo sapiens) (UniProt P52732); assay: Uncompetitive inhibition of human wild type Eg5 with respect to microtubule using varying ATP levels in presence of saturating levels of microtubule by Lineweaver-Burke plot
T2 sequence (whole entry): T1 sequence (whole entry) with D133A

Measured: inhibition

O=C1CCc2cc(-c3ccc(C(F)(F)F)cc3)ccc2N1
active: all assays above

NC(=O)Nc1ccc(-c2ccc(C(F)(F)F)cc2)cc1F
active: all assays above
